Source: PubChem BioAssay (NCI)
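Following 48 hours of exposure in 96-well plates, responses at five concentrations were used to interpolate endpoints linearly. TGI marks complete inhibition of growth.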

Columns and labels:
Assay in all cases: DTP human tumour cell line panel, 48 h
[1] = system: HT29 colon
[2] = system: NCI-H522 lung
[3] = system: SNB-75 CNS
[4] = system: CCRF-CEM leukemia
[5] = system: TK-10 renal
[6] = system: A498 renal
[7] = system: SW-620 colon
[8] = system: HL-60(TB) leukemia
[9] = system: T-47D breast
[10] = system: COLO 205 colon
[11] = system: NCI-H226 lung
[12] = system: SN12C renal
[13] = system: MDA-MB-231 breast
[14] = system: SNB-19 CNS
[15] = system: K-562 leukemia
[16] = system: HOP-62 NSCLC
[17] = system: DU-145 prostate
[18] = system: UACC-62 melanoma
[19] = system: OVCAR-8 ovarian
[20] = system: HCC-2998 colon
[21] = system: OVCAR-3 ovarian
[22] = system: EKVX NSCLC
[23] = system: A549 NSCLC
[24] = system: HS 578T breast
[25] = system: LOX IMVI melanoma
[26] = system: HCT-116 colon
[27] = system: KM12 colon
[28] = system: HCT-15 colon
[29] = system: SK-MEL-5 melanoma
[30] = system: OVCAR-4 ovarian
[31] = system: RPMI-8226 leukemia
[32] = system: UACC-257 melanoma
[33] = system: NCI/ADR-RES ovarian
[34] = system: MCF7 breast
[35] = system: 786-0 renal
[36] = system: UO-31 renal
[37] = system: NCI-H23 lung
[38] = system: BT-549 breast
[39] = system: MDA-MB-435
[40] = system: CAKI-1 renal
[41] = system: SF-295 CNS
[42] = system: SF-268 CNS
[43] = system: MOLT-4 leukemia
[44] = system: U251 CNS
[45] = system: MDA-N
[46] = system: MALME-3M melanoma
[47] = system: SK-MEL-28 melanoma
[48] = system: OVCAR-5 ovarian
[49] = system: SF-539 CNS
[50] = system: HOP-92 NSCLC
[51] = system: M14 melanoma
[52] = system: ACHN renal
[53] = system: PC-3 prostate
[54] = system: RXF 393 renal
[55] = system: SK-MEL-2 melanoma
[56] = system: IGROV1 ovarian
[57] = system: SK-OV-3 ovarian
[58] = system: NCI-H460 lung
[59] = system: SR leukemia

`CC(C)=CCc1c(O)c(CC2=C(O)C(C)=C(O)C(CC=C(C)C)(C(=O)C(C)C)C2=O)c(O)c(C(=O)C(C)C)c1O` (configuration not stated) showed a TGI [1] of 12.6 µM, a TGI [2] of 21.5 µM and a TGI [3] of over 47.7 µM. The TGI [4] was over 15.1 µM, the TGI [5] was over 47.7 µM and the TGI [6] was over 38.9 µM. For the same molecule, the TGI [7] was over 44.7 µM, the TGI [8] was over 47.7 µM and the TGI [9] was 33.7 µM. For the same molecule, the TGI [10] was over 47.7 µM, the TGI [11] was 21.8 µM and the TGI [12] was over 47.7 µM. It also gave a TGI [13] of 46.5 µM, a TGI [14] of over 31 µM and a TGI [15] of 34 µM. It also gave a TGI [16] of over 29.5 µM, a TGI [17] of over 47.7 µM and a TGI [18] of 22.4 µM. The TGI [19] was 31.2 µM, the TGI [20] was over 38.9 µM and the TGI [21] was over 38.1 µM. It also gave a TGI [22] of over 44.6 µM, a TGI [23] of over 47.7 µM and a TGI [24] of 21.6 µM. The TGI [25] was over 28.1 µM, the TGI [26] was 19.8 µM and the TGI [27] was 17.5 µM. For the same molecule, the TGI [28] was over 47.7 µM, the TGI [29] was 18.3 µM and the TGI [30] was over 47.7 µM. It also gave a TGI [31] of over 31.2 µM, a TGI [32] of 28.8 µM and a TGI [33] of 27.5 µM. The TGI [34] was over 45.3 µM, the TGI [35] was over 35.3 µM and the TGI [36] was 19.5 µM. For the same molecule, the TGI [37] was 25.4 µM, the TGI [38] was 36.9 µM and the TGI [39] was over 38.4 µM. For the same molecule, the TGI [40] was over 47.7 µM, the TGI [41] was over 38.1 µM and the TGI [42] was over 47.7 µM. The TGI [43] was 11.4 µM, the TGI [44] was over 40.2 µM and the TGI [45] was 38.1 µM. The TGI [46] was 17.9 µM, the TGI [47] was over 31.7 µM and the TGI [48] was over 42.5 µM. The TGI [49] was over 47.7 µM, the TGI [50] was 25.5 µM and the TGI [51] was over 36.6 µM. The TGI [52] was over 40.5 µM, the TGI [53] was over 47.7 µM and the TGI [54] was over 47.7 µM. It also gave a TGI [55] of over 31.4 µM, a TGI [56] of 31.3 µM and a TGI [57] of over 47.7 µM.

`CN=c1oc2ccccc2cc1C(N)=O` was tested, and the TGI [1] was over 100 µM, the TGI [2] was over 100 µM and the TGI [3] was over 100 µM. The TGI [4] was over 100 µM, the TGI [5] was over 100 µM and the TGI [7] was over 100 µM. It also gave a TGI [8] of over 100 µM, a TGI [9] of over 100 µM and a TGI [10] of over 100 µM. For the same molecule, the TGI [11] was over 100 µM, the TGI [12] was over 100 µM and the TGI [58] was over 100 µM. For the same molecule, the TGI [13] was over 100 µM, the TGI [14] was over 100 µM and the TGI [15] was over 100 µM. It also gave a TGI [16] of over 100 µM, a TGI [17] of over 100 µM and a TGI [18] of over 100 µM. For the same molecule, the TGI [19] was over 100 µM, the TGI [20] was over 100 µM and the TGI [21] was over 100 µM. It also gave a TGI [22] of over 100 µM, a TGI [23] of over 100 µM and a TGI [24] of over 100 µM. The TGI [25] was over 100 µM, the TGI [26] was over 100 µM and the TGI [27] was over 100 µM. The TGI [28] was over 100 µM, the TGI [29] was over 100 µM and the TGI [31] was over 100 µM. The TGI [32] was over 100 µM, the TGI [33] was over 100 µM and the TGI [34] was over 100 µM. For the same molecule, the TGI [35] was over 100 µM, the TGI [36] was over 100 µM and the TGI [37] was over 100 µM. For the same molecule, the TGI [38] was over 100 µM, the TGI [39] was over 100 µM and the TGI [40] was over 100 µM. The TGI [41] was over 100 µM, the TGI [42] was over 100 µM and the TGI [43] was over 100 µM. The TGI [44] was over 100 µM, the TGI [45] was over 100 µM and the TGI [47] was over 100 µM. It also gave a TGI [49] of over 100 µM, a TGI [50] of over 100 µM and a TGI [51] of over 100 µM. The TGI [59] was over 100 µM, the TGI [52] was over 100 µM and the TGI [53] was over 100 µM. For the same molecule, the TGI [54] was over 100 µM, the TGI [55] was over 100 µM and the TGI [56] was over 100 µM. For the same molecule, the TGI [57] was over 100 µM.
